Reference: ChEMBL document CHEMBL3817819, “Development and application of ligand-based NMR screening assays for -butyrobetaine hydroxylase” (Medchemcomm, 2016)
Active and inactive are the calls of the source. The calls are words filed in the database; no cut-off is given here.

Key:
[1] = target: T1, Gamma-butyrobetaine dioxygenase (Pseudomonas sp. (strain AK-1), UniProt P80193); assay: Inhibition of Pseudomonas sp. AK1 BBOX assessed as hydroxylation of GBB to L-carnitine measured for 60 sec in presence of 2OG and Fe2+ by 1H NMR assay
T1 sequence (P80193 whole entry): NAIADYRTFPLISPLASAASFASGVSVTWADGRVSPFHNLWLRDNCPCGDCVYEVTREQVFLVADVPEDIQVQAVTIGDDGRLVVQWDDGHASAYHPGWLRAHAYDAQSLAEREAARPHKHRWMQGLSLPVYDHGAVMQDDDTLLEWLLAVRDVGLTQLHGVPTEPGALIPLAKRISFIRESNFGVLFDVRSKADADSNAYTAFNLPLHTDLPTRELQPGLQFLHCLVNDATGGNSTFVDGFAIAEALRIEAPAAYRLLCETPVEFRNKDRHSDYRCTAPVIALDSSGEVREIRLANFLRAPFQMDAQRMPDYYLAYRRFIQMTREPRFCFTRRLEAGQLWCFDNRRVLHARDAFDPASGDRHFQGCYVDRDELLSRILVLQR

[2] = target: T1, Gamma-butyrobetaine dioxygenase; assay: Inhibition of Pseudomonas sp. AK1 BBOX using GBBF as substrate after 10 mins in presence of 2OG and Fe2+ using TBS-protected fluorescein probe by fluoride release assay
[3] = target: T2, Gamma-butyrobetaine dioxygenase (Pseudomonas sp. (strain AK-1)) (UniProt P80193); assay: Inhibition of 2OG binding to Pseudomonas sp. AK1 BBOX at 25 uM in presence of Mn2+ by 1H NMR GBB/2OG dual reporter displacement assay
T2 sequence (whole entry): T1 sequence (P80193 whole entry)

[4] = target: T2, Gamma-butyrobetaine dioxygenase (Pseudomonas sp. (strain AK-1)); assay: Inhibition of GBB binding to Pseudomonas sp. AK1 BBOX at 25 uM in presence of Mn2+ by 1H NMR GBB/2OG dual reporter displacement assay
[5] = target: T1, Gamma-butyrobetaine dioxygenase; assay: Binding affinity to Pseudomonas sp. AK1 BBOX by intrinsic tryptophan fluorescence quenching assay
[6] = target: T3, Gamma-butyrobetaine dioxygenase (Homo sapiens, UniProt O75936); assay: Inhibition of human BBOX using GBBF as substrate in presence of 2OG and Fe2+ using TBS-protected fluorescein probe by fluoride release assay
T3 sequence (O75936 whole entry): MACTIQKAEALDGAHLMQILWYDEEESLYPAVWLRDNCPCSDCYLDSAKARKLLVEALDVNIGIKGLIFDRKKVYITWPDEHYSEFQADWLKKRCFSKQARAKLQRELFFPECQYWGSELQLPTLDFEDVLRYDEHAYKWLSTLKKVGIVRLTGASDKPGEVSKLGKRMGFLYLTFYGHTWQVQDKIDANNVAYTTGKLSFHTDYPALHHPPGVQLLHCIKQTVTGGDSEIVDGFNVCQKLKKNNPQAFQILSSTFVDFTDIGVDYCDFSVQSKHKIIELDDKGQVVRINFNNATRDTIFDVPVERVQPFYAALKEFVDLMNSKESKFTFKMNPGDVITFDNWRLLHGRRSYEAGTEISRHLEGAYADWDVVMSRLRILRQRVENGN

[7] = target: T2, Gamma-butyrobetaine dioxygenase (Pseudomonas sp. (strain AK-1)); assay: Induction of GBB binding to Pseudomonas sp. AK1 BBOX at 25 uM in presence of Mn2+ by 1H NMR GBB/2OG dual reporter displacement assay

SMILES	IC50 [1] [µM]	IC50 [2] [µM]	inhibition [3]	inhibition [4]	Kd [5] [µM]	IC50 [6] [µM]	Activity [7]
O=C(O)C[C@H](NC(=O)c1nc(Cl)c2ccccc2c1O)C(=O)O	76	245	Active	inactive	91	–	–
CC(C)[C@@H](NC(=O)c1nc(Cl)c2ccccc2c1O)C(=O)O	191	> 1000	inactive	inactive	144	–	–
CC(C)C[C@@H](NC(=O)c1nc(Cl)c2ccccc2c1O)C(=O)O	94	> 1000	inactive	inactive	103	–	–
CC(C)C[C@H](NC(=O)c1nc(Cl)c2ccccc2c1O)C(=O)O	26	125	Active	Active	55	–	–
O=C(O)CC[C@@H](NC(=O)c1nc(Cl)c2ccccc2c1O)C(=O)O	86	> 1000	inactive	inactive	89	–	–
O=C(N[C@@H](Cc1c[nH]c2ccccc12)C(=O)O)c1nc(Cl)c2ccccc2c1O	0.9	26	Active	Active	29	11	–
O=C(O)CC[C@H](NC(=O)c1nc(Cl)c2ccccc2c1O)C(=O)O	22	147	–	–	64	–	–
O=C(N[C@@H](Cc1ccccc1)C(=O)O)c1nc(Cl)c2ccccc2c1O	1	13	Active	Active	26	–	–
O=C(O)CNC(=O)c1nc(Cl)c2ccccc2c1O	0.21	1.2	Active	inactive	22	–	Active
CC(C)[C@H](NC(=O)c1nc(Cl)c2ccccc2c1O)C(=O)O	23	130	Active	Active	55	–	–
O=C(N[C@H](Cc1ccccc1)C(=O)O)c1nc(Cl)c2ccccc2c1O	38	101	–	–	82	–	–
O=C(O)C[C@@H](NC(=O)c1nc(Cl)c2ccccc2c1O)C(=O)O	38	160	–	–	101	–	–
O=C(N[C@H](Cc1c[nH]c2ccccc12)C(=O)O)c1nc(Cl)c2ccccc2c1O	18	> 1000	–	–	168	33	–
